For 32 molecules, TGI and GI50 results are on record in PubChem BioAssay (NCI).

Where “and” joins values, the source holds several entries; their conditions need not be identical. Equal entries are not always repeated.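 Test compounds were applied to cells in 96-well plates for 48 hours at 5 doses. At the GI50, growth is halved. TGI marks complete inhibition of growth.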

Holding throughout (test): DTP human tumour cell line panel, 48 h
The test system of assay [1] is LOX IMVI melanoma.
The subject of assay [2] is NCI-H460 lung.
Assay [3] has as its system EKVX NSCLC.
Assay [4] relates to MOLT-4 leukemia.
Assay [5] concerns SF-268 CNS.
Assay [6] concerns K-562 leukemia.
For assay [7], the system named is SF-539 CNS.
Assay [8] has as its system MDA-MB-435.
Assay [9] deals with BT-549 breast.
Assay [10] has as its system T-47D breast.

`Cc1ccc(NC(=O)CC/C(CC(=O)C(C)(C)C)=N/NC(=O)c2cc3ccccc3cc2O)cc1C`: the TGI was 62.9 µM in [1]; over 100 µM in assay [2]; over 100 µM in assay [3]; over 100 µM in assay [4]; over 100 µM in [5].

For `CCC12CCC[C@@]13C=C[C@H](O3)C(C)(C)C2=O` (some centres undefined), the TGI in [1], in [2], in assay [3], in assay [6], in assay [7] and in [4] was over 100 µM each time. The TGI in [5] was over 100 µM.

As to `COc1ccc(/C(C=O)=C(\Cl)c2ccc(OC)c(OC)c2)cc1`, the TGI in assay [1], in [2], in [3], in assay [6], in assay [7] and in [4] was over 100 µM in each case. The TGI in assay [5] was over 100 µM.

With `COc1ccc(O[C@H](CO)C[C@@H]2COC(C)(C)O2)cc1`, the concentration for total growth inhibition (TGI) in assay [1], in assay [2], in assay [3], in assay [8], in assay [6] and in assay [9] was over 100 µM throughout. For the same molecule, the TGI in assay [7], in assay [4] and in assay [5] was over 100 µM each time.

In the case of `CC1CC(c2ccccc2)=Nc2ccccc2S1` (centres undefined), the TGI in assay [1], in assay [2], in assay [3], in assay [6], in [7] and in [4] was over 100 µM in each case. The same molecule yielded a TGI in assay [5] of over 100 µM.

Turning to `CC(C)C(NCc1c2ccccc2[n+](C)c2ccccc12)C(=O)O` (centres undefined), the TGI in assay [1] was found to be 17.3 µM; in assay [2], 29.1 µM; in assay [3], 24.2 µM; in assay [6], 18.5 µM; in assay [7], 14.3 µM; in assay [4], 7.86 µM. In addition, in assay [5], the TGI turned out to be 10.9 µM.

Consider `O=C1c2ccccc2-c2c1c1ccccc1c(=O)n2CCCNCCNCCCn1c2c(c3ccccc3c1=O)C(=O)c1ccccc1-2`, for which the GI50 in assay [1] is under 0.01 µM; in assay [3] it was 1.23 µM; in assay [6], under 0.0335 µM; in assay [4] it was under 0.01 µM; in assay [5], 0.0166 µM. For the same molecule, the total growth inhibition concentration (TGI) in assay [1] was 0.355 µM; in [3], 2.88 µM; in [6] it was over 100 µM; in assay [4], over 100 µM; in [5], 2.5 µM.

On to `CCCCCCCCCCCCOCC(COP(=O)(O)OCCN=[N+]=[N-])OC(=O)CCCCCCCCCCC` (centres undefined), for which the TGI in assay [2], in assay [10], in assay [8], in [6], in [7] and in assay [4] was over 100 µM throughout. Further, the TGI in assay [5] was over 100 µM.

As for `COc1ccc(C(=CCC(C)C2CCC3[C@@H]4C(OC(C)=O)CC5CC(OC(C)=O)CC[C@]5(C)C4CC(OC(C)=O)[C@]23C)c2ccc(OC)cc2)cc1` (some centres undefined), the concentration for total growth inhibition (TGI) in assay [2], in assay [3], in assay [10], in assay [8], in assay [6] and in assay [7] was over 100 µM each time. For the same molecule, the TGI in assay [4] and in assay [5] was over 100 µM throughout.

On to `COc1c(OC2OC(CO)C(O)C(O)C2O)cc2c(c1OC)-c1ccc(OC)c(=O)cc1C(NC(C)=O)CC2` (centres undefined), for which the concentration for total growth inhibition (TGI) in assay [1], in assay [2], in assay [3], in assay [6], in [7] and in assay [4] was over 100 µM each time. Further, the concentration for total growth inhibition (TGI) in assay [5] is over 100 µM.

Take `O=C(Nc1ccc(-n2cc(-c3ccncc3)c(-c3ccc(O)c(Cl)c3)n2)cc1)Nc1cc(C(F)(F)F)cc(C(F)(F)F)c1`: the GI50 is 3.73 µM in [1]; 3.69 µM in assay [2]; 3.57 µM in [3]; 3.28 µM in [10]; 3.37 µM in assay [8]; 4.07 µM in [6]. Also, the figures for the GI50 in [7], in [4] and in [5] were 3.81 µM, 4.29 µM and 4.37 µM, respectively. In addition, the TGI in [1] came out at 23.7 µM; in assay [2], 14.6 µM; in [3], 15.6 µM; in [10], 10.7 µM; in [8], 12.8 µM; in assay [6] it was 17.9 µM. The TGI was 15.3 µM in assay [7], 18.3 µM in assay [4] and 16 µM in assay [5].

As for `COc1cccc(/C=N/[N-]C(N)=O)c1[O-].[Cu+2].[OH3+]`, the TGI in [1] was found to be 30.6 µM; in [2] it was 36 µM; in assay [3], 34.9 µM; in assay [6] it was 45.2 µM; in [7], 33.5 µM; in assay [4], 38.3 µM. Moreover, the TGI in assay [5] was 32.9 µM. Also, the GI50 in assay [6] was 5.7 µM; in [4], 10.1 µM.

Regarding `Cc1ccc(S(=O)(=O)NC(=O)Nc2ccc(C(=O)O)cc2)cc1`, the concentration for total growth inhibition (TGI) in [1], in [2], in assay [10], in assay [6], in assay [9] and in [7] was over 100 µM in each case. For the same molecule, the TGI in [4] and in [5] was over 100 µM each time.

With `[C-]#[O+].[Cl][Sn]([Cl])[Cl].[Cl][Sn]([Cl])[Cl].[Pt].c1cnc2c(c1)ccc1cccnc12`, the TGI in assay [1] was 15.8 µM; in assay [2], 23.5 µM; in [3] it was 44.4 µM; in [6] it was over 48.3 µM; in assay [7], 16.6 µM; in assay [4], over 30.9 µM. The same molecule displayed a TGI in [5] of over 79 µM.

`O=C(O)CCCc1ccc2c(c1)C(C(=O)O)CC2` (centres undefined): the TGI in assay [1], in assay [2], in assay [3], in [10], in [6] and in [9] was over 100 µM in each case. Besides, the TGI in assay [7], in assay [4] and in assay [5] was over 100 µM throughout.

Take `CCOC(=O)C(Cc1ccc(N=NN(C)C)cc1)NC(=O)CC1c2ccccc2-c2ccccc21` (centres undefined): the TGI in assay [1], in [2], in assay [3], in [6], in assay [7] and in assay [4] was over 100 µM each time. Besides, the TGI in [5] was over 100 µM.

For `C/C(CCN(C)C)=N/O`, the concentration for total growth inhibition (TGI) in assay [1] stood at 16.3 µM; in assay [2], 58.5 µM; in assay [3], 28.8 µM; in [6] it was 6.97 µM; in [7], 1.89 µM; in assay [4] it was 4.82 µM. The TGI in assay [5] was determined as 2.49 µM.

For `Cc1cc(-c2ccc(N=Nc3ccc4c(S(=O)(=O)O)cc(S(=O)(=O)O)c(N)c4c3O)c(C)c2)ccc1N=Nc1ccc2c(S(=O)(=O)O)cc(S(=O)(=O)O)c(N)c2c1O`, the concentration for total growth inhibition (TGI) in [1], in assay [2], in assay [3], in assay [6], in assay [7] and in [4] was over 100 µM each time. The TGI in [5] is over 100 µM.

For the molecule `CN1C(c2ccccc2)CC(O)CC1c1ccccc1` (centres undefined), the TGI in [1], in [2], in assay [3], in [6], in assay [7] and in assay [4] was over 100 µM throughout. This molecule showed a TGI in [5] of over 100 µM.

For the molecule `Cc1cccc2c1nc1n2C(=O)c2ccccc2-1`, the TGI in assay [2], in assay [3], in assay [6], in assay [9], in assay [7] and in assay [4] was over 100 µM in each case. Besides, the TGI in [5] is over 100 µM.

As to `COC(=O)c1c(O)ccc2c1c1c(n2Cc2ccc(OC)cc2)C(=O)c2ccccc2C1`, the concentration for total growth inhibition (TGI) in assay [1], in assay [2], in [8], in assay [6], in [9] and in assay [7] was over 100 µM each time. Besides, the concentration for total growth inhibition (TGI) in assay [4] and in assay [5] was over 100 µM each time.

Take `CN(C)c1cccc2c(S(=O)(=O)NCCN)cccc12`: the TGI in assay [1], in [2], in assay [3], in [10], in assay [8] and in assay [6] was over 100 µM in each case. The TGI in assay [7], in assay [4] and in assay [5] was over 100 µM in each case.

For the molecule `O=C(O)C1CCC(=O)N1C(=O)COc1cc(Cl)c(Cl)cc1Cl` (centres undefined), the TGI in assay [1], in [2], in [3] and in assay [5] was over 100 µM each time.

Consider `CC(=O)c1c(-c2ccc(Cl)cc2)c(C#N)c(=S)n(C2OC(CO)C(O)C(O)C2O)c1C` (centres undefined), for which the TGI in assay [1], in assay [2], in [10], in assay [8], in assay [6] and in assay [7] was over 100 µM each time. Also, the total growth inhibition concentration (TGI) is 52.8 µM in assay [4] and over 100 µM in assay [5].

For `NCCCNc1nc2ccccc2c2c(=O)c3cc(Cl)ccc3sc12`, the GI50 in assay [8] is 1.75 µM; in assay [9], 13.5 µM; in [7], 1.72 µM. Further, the TGI in [8] is 3.18 µM; in assay [9] it was 46.2 µM; in [7], 3.15 µM.

In the case of `CCc1c(O)nc(Nc2nc3ccccc3[nH]2)[nH]c1=O`, the TGI in [1], in assay [2], in assay [8], in assay [6], in assay [9] and in assay [7] was over 100 µM each time. Besides, in [5], the TGI is over 100 µM.

Consider `C/C(=N/NC(=S)Nc1ccc(C)cc1)c1ccccn1`, for which the TGI in assay [1] was 20.8 µM; in assay [2] it was 7.95 µM; in assay [3], 5.12 µM; in assay [8] it was 15 µM; in assay [6], 6.09 µM; in assay [9] it was 18.7 µM. The TGI in [7] is 7.41 µM; in assay [4] it was 2.53 µM; in assay [5] it was 16.4 µM.

For `Cc1nc(C(=Nc2ccc(Br)cc2)Nn2cnnc2)no1`, the TGI in assay [2], in assay [3], in assay [10], in [8], in assay [6] and in [9] was over 100 µM each time. Also, the TGI in assay [4] was over 100 µM.

For `COCOC1CCCC[C@@]1(OCCOCCO[C@@]1(c2ccccc2)CCCC[C@H]1OCOC)c1ccccc1` (some centres undefined), the TGI in [1], in assay [2], in assay [3], in assay [6] and in assay [5] was over 100 µM throughout.

As for `CC(=O)OC12c3ccccc3C(c3ccccc31)C1C(=O)N(N=C(C)C)C(=O)C12` (centres undefined), the TGI in assay [1], in assay [3], in assay [10], in [6], in [9] and in assay [7] was over 100 µM throughout. In addition, the TGI in assay [4] and in assay [5] was over 100 µM throughout.

In the case of `COC(=O)C(Cc1ccccc1)NC(=O)C(CNC(=O)OCc1ccccc1)C(=O)OCc1ccccc1` (centres undefined), the GI50 in assay [2] was 94.1 µM and 13.5 µM; in assay [8], > 100 µM and 44.5 µM; in assay [4], > 100 µM and 10.4 µM. The TGI in assay [2] was > 100 µM and 36.5 µM; in [10] it was over 100 µM; in assay [8], over 100 µM; in assay [6] it was over 100 µM; in assay [9], over 100 µM; in assay [4], > 100 µM and 30.3 µM.

On to `COCc1cc2c(s1)C(=O)C1=C(C2=O)C2(C=C(Br)C(=O)C(Br)=C2)CCN1`, for which the TGI in [1] amounted to 7.68 µM; in assay [2], 14.5 µM; in assay [3], 26.3 µM; in assay [10], 9.2 µM; in assay [8], 2.94 µM; in assay [6], 9.32 µM. Besides, the TGI in assay [7] is 15.5 µM; in [4] it was 8.29 µM; in assay [5], 17.8 µM.

One may read the TGI as the concentration giving total growth inhibition. In general, GI50 refers to the concentration that inhibits growth by half.
